The nature of the data set: aqueous solubility at 25°C. The data set is classed as physicochemical. The following applies: water.

Each structure is given as a SMILES string. Structures can show the parent of a compound that is named as a salt.

As for `CC(CCc1ccc(O)cc1)NCCc1ccc(O)c(O)c1` (stereo not shown) [dobutamine hydrobromide], the aqueous solubility entry (room temperature (25°C), hydrobromide) is given as “about 28 mg per ml of water”.
The term solubility denotes the dissolved amount per volume that the medium holds. A higher solubility goes with much dissolved substance. For `CC(CCc1ccc(O)cc1)NCCc1ccc(O)c(O)c1` (racemic) [Dobutamine phosphate dibasic, dobutamine phosphate dibasic], under “room temperature (25°C)”, the solubility was ~25 mg/mL.
For the molecule `CC(CCc1ccc(O)cc1)NCCc1ccc(O)c(O)c1` (stereo not shown) [dobutamine hydrochloride], under “room temperature (25°C)”, the solubility is 28 mg/mL.
Consider `CC(CCc1ccc(O)cc1)NCCc1ccc(O)c(O)c1` (racemic) [dobutamine phosphate monobasic], for which, for the setting “at 25°C”, the solubility was ~2000 mg/mL.
